Results taken from patent US7737182B2, “Pharmaceuticals for xerosis” (Taisho Pharmaceutical Co., Ltd., priority 2001, dated 2010).

Tests used:
[1] = system: human platelets; test: Suppression of ADP-induced aggregation of human platelets; assay type: cell-based; settings: human platelet-rich plasma, ADP (3 μM), Born method
Protocol: (A) Using the active ingredient of the present invention (compound No. 7) and PGD2 as a control for comparison, prostaglandin D receptor binding selectivity was determined with reference to the platelet aggregation suppressing action as the prostaglandin D receptor agonist action. 1. Human Platelet Aggregation Suppressing Action Suppression of ADP-Induced Aggregation of Human Platelets
The test was performed on purchased platelet-rich plasma (PRP) (6×10^8 platelets/mL) and platelet aggregation was measured based on the Born method (Nature, vol. 194, p. 927, 1962). To 100 μL of PRP, 5 μL of a 1 nM-3 μM test drug solution in ethanol was added and the mixture was incubated at 37° C. for 1 minute with stirring at 1000 rpm. To the resulting mixture, 5 μL of an aggregation inducer [ADP (3 μM)] was added to induce platelet aggregation and a maximum percent aggregation (a maximum change in light transmittance that occurred within 5 minutes after the induction of platelet aggregation) was determined by an aggregometer. The percent suppression of aggregation by each test drug was calculated from the maximum percent aggregation by the test drug as relative to the maximum percent aggregation by ethanol instead of the test drug solution and IC50 values were determined from the constructed dose-response curve.

[2] = system: BALB/c male mice; test: Mouse skin's barrier function, preventive test, TEWL (Test Example 6); assay type: in vivo; settings: cohabitation with dermatitic NC/Nga mice; 0.01% in ethanol, 100 μL, once a day for 7 days
Protocol: Six-week-old BALB/c male mice in groups of six were shaven in a rostral dorsolateral area of 4 cm^2 (2 cm×2 cm) with electric clippers and kept in the same cage as NC/Nga mice that had developed dermatitis. From the day next to the start of cohabitation, a solvent (ethanol, 100 μL) or a drug dissolved in the solvent (compound No. 7, PGD2, PGF2α, or PGE1, all being at 0.01% in an amount of 100 μL) was applied to the shaven site for 7 days on once-a-day basis.
On the day next to the seventh application of the solvent or drug, the transepidermal water loss (TEWL) at the same site was measured with Tewameter (TM210 of Courage & Khazawa, Germany) to evaluate the drug's action, with the solvent-applied group being used as the control group.

[3] = molecular target: T1, prostaglandin D receptor (Homo sapiens, UniProt Q13258); test: Antagonism by BW A868C of the suppression of ADP-induced human platelet aggregation; assay type: cell-based; settings: final concentration 1000 nmol/L, human PRP, ADP 3 μmol/L
T1 construct: separate the supernatant (PRP, or platelet-rich plasma); endogenous in cells; host or cells: human platelets (platelet-rich plasma from healthy male donors)
T1 sequence (Q13258 1-359): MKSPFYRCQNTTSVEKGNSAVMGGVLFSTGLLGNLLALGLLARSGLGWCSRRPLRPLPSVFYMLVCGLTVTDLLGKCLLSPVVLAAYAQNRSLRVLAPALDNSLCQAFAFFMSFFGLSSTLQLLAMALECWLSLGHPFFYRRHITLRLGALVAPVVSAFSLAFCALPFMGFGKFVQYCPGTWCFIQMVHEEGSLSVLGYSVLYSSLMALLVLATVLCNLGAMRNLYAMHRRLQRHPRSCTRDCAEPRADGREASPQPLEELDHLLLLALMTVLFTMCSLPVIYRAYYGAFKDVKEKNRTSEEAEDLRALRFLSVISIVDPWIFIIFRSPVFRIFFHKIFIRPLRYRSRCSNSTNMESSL
Protocol: The prostaglandin D receptor selective antagonist used in the test was ((+/−)-3-benzyl-5-(6-carboxyhexyl)-1-(2-cyclohexyl-2-hydroxyethylamino)-hydantoin) (hereunder designated BW A868C) (Sigma-Aldrich Japan K.K.)
BW A868C was diluted with ethanol to final concentrations of 0.03 μmol/L, 0.1 μmol/L, 0.3 μmol/L, 1 μmol/L, 3 μmol/L and 10 μmol/L.
Compound No. 7 and PGD2 were diluted with ethanol to 287 nmol/L and 300 nmol/L, respectively, for subsequent use.
Blood was taken from the cubital veins of human healthy males and sampled into a tube containing 3.13% sodium citrate. The blood sample was centrifuged at 1,000 rpm for 10 minutes at 20° C. to separate the supernatant (PRP, or platelet-rich plasma) and the residue was further centrifuged at 3,000 rpm for 10 minutes at 20° C. to separate the supernatant (PPP, or platelet-poor plasma). The platelet count of PRP was appropriately diluted with PPP to 30×10^4 platelets/μL for subsequent use.
Platelet aggregation was measured with a platelet aggregation measuring instrument (PAM-8C; MC MEDICAL Co., LTD.) by the Born method (Nature, vol. 194, p. 927, 1962). A portion (273 μL) of PRP (for the BW A868C groups, 1 μL of BW A868C was added at varying concentrations) was preincubated at 37° C. for 3 minutes with stirring at 1,000 rpm. After the preincubation, 1 μL of ethanol or a test substance (compound No. 7: final concentration at 95.7 nmol/L; PGD2: final concentration at 1000 nmol/L) was added and the mixture was incubated at 37° C. for 3 minutes with stirring at 1000 rpm. After the incubation, 25 μL of ADP (final concentration at 3 μmol/L) was added to induce platelet aggregation and a maximum percent aggregation for 5 minutes was measured.

[4] = system: BALB/c male mice; test: Mouse skin's barrier function, treatment test, TEWL (Test Example 5); assay type: in vivo; settings: barrier destroyed with acetone/diethyl ether; 0.01% in ethanol, 100 μL, once a day for 2 days
Protocol: Six-week-old BALB/c male mice in groups of eight were shaven in a rostral dorsolateral area of 4 cm^2 (2 cm×2 cm) with electric clippers and the shaven area was covered for 60 seconds with an absorbent cotton (2 cm×2 cm) impregnated with a 1:1 liquid mixture of acetone and diethyl ether. This treatment for destroying the skin's barrier function was performed for 3 consecutive days on once-a-day basis. Starting on the day next to completion of the treatment for barrier destruction at day 3, a solvent (ethanol, 100 μL) or a drug dissolved in the solvent (compound No. 7, PGD2, PGF2α, or PGE1, all being at 0.01% in an amount of 100 μL) was applied to the barrier destroyed site for 2 days on once-a-day basis. On the day next to the second application of the solvent or drug, the transepidermal water loss (TEWL) at the same site was measured with Tewameter (TM210 of Courage & Khazawa, Germany) to evaluate the drug's action.

[5] = system: guinea pig platelets; test: Suppression of ADP-induced aggregation of guinea pig platelets; assay type: cell-based; settings: guinea pig platelet-rich plasma, ADP (3 μM)
Protocol: Ten-week-old Hartley male guinea pigs were anesthetized with pentobarbital (30 mg/kg, i.p. injected) and a total of 20 mL of blood was sampled into a syringe containing 2.0 mL of 3.8% sodium citrate. The blood was immediately centrifuged at 900 rpm for 10 minutes at 20° C. to recover the supernatant PRP. By further centrifugation at 3000 rpm for 10 minutes at 20° C., the supernatant PPP was recovered. The platelet count of PRP was diluted with PPP to 30×10^4 platelets/μL for subsequent use.
For platelet aggregation measurement, a platelet aggregation measuring instrument (PAM-8C) was employed. To 274 μL of PRP, 1 μL of a 0.287-95.7 nM test drug solution in ethanol was added and the mixture was incubated at 37° C. for 3 minutes with stirring at 1000 rpm. After the incubation, 25 μL of ADP (3 μM) was added to induce platelet aggregation and a maximum percent aggregation for 5 minutes was measured.
The percent suppression of aggregation by each test drug was calculated from the maximum percent aggregation by the test drug as relative to the maximum percent aggregation by ethanol instead of the test drug solution and IC50 values were determined from the constructed dose-response curve.

[6] = system: Fifty-week-old BALB/c male mice; test: Aged mouse skin's barrier function, treatment test, TEWL (Test Example 7); assay type: in vivo; settings: 50-week-old mice; 0.0001% in ethanol, 200 μL, once a day for 3 days
Protocol: Fifty-week-old BALB/c male mice (eight in each group) were shaven in a rostral dorsolateral area of 4 cm^2 (2 cm×2 cm) with electric clippers. Starting on the next day, a solvent (ethanol, 200 μL) or a drug dissolved in the solvent (compound No. 7 or PGD2, each being at 0.0001% in an amount of 200 μL) was applied to the shaven site for 3 days on once-a-day basis.
On the day next to the third application of the solvent or drug, TEWL at the same site was measured with Tewameter (TM210 of Courage & Khazawa, Germany) to evaluate the drug's action.

Compound: CCCCC[C@H](O)/C=C/[C@H]1C(=O)C[C@H](O)[C@@H]1C/C=C\CCCC(=O)O [PGD2, prostaglandin D2, reference compound]
- IC50 [1]: 0.011 µM
- transepidermal water loss (TEWL) compared to the control group [2]: significant decrease in TEWL
- platelet aggregation suppressing action compared with control group (ethanol) [3]: significant platelet aggregation suppressing action
- transepidermal water loss (TEWL) compared to the solvent-applied control group [4]: no significant difference from the control group
- IC50 [5]: 0.0543 ± 0.023 µM
- transepidermal water loss (TEWL) compared to the control group [6]: no significant difference from the control group
